# Values joined by “and” are separate entries in the source; they are usually repeats but may differ in a detail not shown here. Equal entries are not always repeated. Marks after values point to notes of the source that are not given here.
# Key:
# [1] = test system: endometrial stromal cells (EnSC); test: Colony-forming unit (CFU) assay on EnSC from paired endometrial biopsies, randomised placebo-controlled trial in RPL patients; format: in vivo, human
# Description: Participants were recruited from a tertiary recurrent miscarriage clinic at UHCW NHS Trust. […] Participants agreed to actively avoid pregnancy and use barrier contraception for the duration of the trial.
# Participants were instructed to take the capsules once daily from the day of the baseline biopsy for 3 menstrual cycles until the second biopsy was taken. The control group were allocated identical placebo capsules also supplied by Sharp Clinical Services and instructed to take these exactly as the intervention group.
# (§1) Following written informed consent, participants were given a digital home ovulation test kit (Clearblue, Geneva, Switzerland), an emergency contact card, and barrier contraception. Participants then attended the clinic 7-10 days after the luteinizing hormone (LH) surge (LH+7-10). Following a negative urine pregnancy test, a transvaginal pelvic ultrasound scan was performed. Endometrial thickness was defined as the maximal endometrium diameter measured in a mid-sagittal plane. Next, an endometrial biopsy was obtained using a Wallach Endocell® endometrial sampler. The sample, designated ‘baseline biopsy’, was immediately portioned with one part stored in RNALater Stabilization Solution (Sigma-Aldrich, Dorset, UK) one part snap frozen in liquid nitrogen, one part fixed in 10% formalin for immunohistochemistry, and the remainder placed in 10% DMEM/F12 for isolation of primary endometrial stromal cells (see below). Following randomisation (see below), trial medication was provided and all participants attended two follow-up clinics at 4 weeks±4 day intervals. At these follow-up visits a urine pregnancy test was carried out, symptom diaries were reviewed, adverse events reported, and willingness for continued participation confirmed. At the second follow-up visit, participants were provided with another home ovulation test kit. In the third cycle, participants attended the clinic on LH+7-10 for a repeat transvaginal ultrasound scan with measurement of endometrial thickness and endometrial biopsy. The sample, designated ‘second biopsy’, was processed identically to the baseline biopsy. Trial medication was stopped on the day of the second biopsy.
# Primary EnSC were isolated according to our published protocol (65). Briefly, samples were washed in DMEM/F-12 medium (Invitrogen), finely minced and enzymatically digested with 0.5 mg/ml collagenase (Sigma-Aldrich) and 0.1 mg/ml deoxyribonuclease type I (Roche, Burgess Hill, UK) for 1 hour in 5% CO2 at 37° C. Stromal and epithelial fractions were separated and cryopreserved in 10% DMSO in dextran-coated charcoal-stripped fetal bovine serum (DCC; 2 ml per vial; Invitrogen), with the stromal fraction split into two or three vials depending on the biopsy size. After controlled cooling at −80° C. overnight, samples were transferred to liquid nitrogen for storage.
# All CFU assays were conducted in batches, consisting of paired primary endometrial stromal cells isolated from baseline and second biopsies from 3 or 4 participants. CFU assays were established as described previously (66). Briefly, cryopreserved stromal cells were thawed for 3 minutes at 37° C. and then transferred immediately into pre-warmed growth medium (DMEM-F12 medium containing 10% DCC supplemented with 1% L-Glutamine and 1% antibiotic-antimycotic mix; Invitrogen). Cells were pelleted by centrifugation at 276×g for 5 minutes, supernatant was aspirated and cells were resuspended in 10 ml growth medium. Viable stromal cells were counted in trypan blue on a Neubauer Improved haemocytometer and seeded at clonal density (53 cells/cm2) onto fibronectin-coated 6-well plates (10 μg/ml in PBS; Sigma-Aldrich) in growth medium supplemented with […] basic fibroblast growth factor (Sigma Aldrich). Three wells, containing 500 cells each, were seeded per biopsy. Plates were cultured in 5% CO2 at 37° C., and left undisturbed for 3 days after which growth was monitored to ensure colonies arose from single cells.
# PRL = test: RT-qPCR of PRL transcript in paired endometrial biopsies; format: in vivo, human; details: second vs baseline biopsy, oral 100 mg daily for 3 cycles, n=16
# Procedure: (§2) RNA was extracted from RNAlater preserved tissue using the RNeasy Lipid Tissue Mini Kit (QIAGEN, Manchester, UK), with on-column DNase treatment, according to the manufacturer's instructions. RNA was assessed using a Nanodrop ND-1000 spectrophotometer and 1 μg RNA used for reverse transcription, performed using the Quantitect Reverse Transcription Kit (QIAGEN) according to manufacturer's instructions. Thermal cycling was performed on a QuantStudio 5 Real-Time PCR System (ThermoFisher, Paisley, UK), using PrecisionPlus 2× Mastermix (Primer Design, Southampton, UK), 300 nM each forward and reverse primers and 1 μl cDNA. L19 was used as a reference gene and data were analysed using the Pfaffl method (68).
# (§3) Induction of PRL and IGFBP1 expression is widely used to monitor the decidual response in cultured EnSC (14).
# IGFBP1 = test: RT-qPCR of IGFBP1 transcript in paired endometrial biopsies; format: in vivo, human; details: second vs baseline biopsy, oral 100 mg daily for 3 cycles, n=16
# Procedure: as §2, §3
# DIO2 = test: RT-qPCR of DIO2 mRNA (senescent decidual cell marker) in paired endometrial biopsies; format: in vivo, human
# Procedure: as §2, §3
# SCARA5 = test: RT-qPCR of SCARA5 mRNA (decidual cell marker) in paired endometrial biopsies; format: in vivo, human; details: second vs baseline biopsy, oral 100 mg daily for 3 cycles, n=16
# Procedure: as §2, §3
# [2] = Adverse events and side effects in trial participants; format: in vivo, human
# Procedure: as §1
# (§4) Participants were provided with compliance and symptom diaries at each visit. Diaries were assessed at every follow-up or biopsy visit. Acceptability and satisfaction of the study was assessed with a Likert scale-based questionnaire completed by participants after their final visit. Participants who conceived after completion of the study were requested to contact the trial team and outcome of the first pregnancy within one year of study completion was recorded.
# [3] = Outcome of first pregnancy within 12 months after study completion; format: in vivo, human; details: sitagliptin group
# Procedure: as §4
# [4] = granulocyte-CSF-dependent mobilisation of BMDC followed by sitagliptin 100 mg for 28 days; cited from earlier work
# [5] = test system: haematopoietic stem and progenitor cells; details: up to 600 mg twice daily, after umbilical cord blood transplantation; cited from earlier work
# [6] = sitagliptin group (n = 16), baseline biopsy before treatment
smiles,measurement,setting,value
N[C@@H](CC(=O)N1CCn2c(nnc2C(F)(F)F)C1)Cc1cc(F)c(F)cc1F [sitagliptin],"Second biopsy CFU count, Median (IQR, Range)","[1]; RPL patients, oral 100 mg once daily for 3 menstrual cycles","14.0 (8.0-29.0, 3-145)^‡ per 1500 EnSC"
same,"Median increase in CFU count, second compared to baseline biopsy",[1]; after 3 cycles of sitagliptin,+7 per 1500 EnSC
same,"Mean CFU count in second biopsy higher than placebo group, adjusted for baseline CFU count","[1]; after 3 cycles, oral 100 mg daily",51%
same,"Mean CFU count, second biopsy","[1]; all data, RPL patients, oral 100 mg once daily for 3 menstrual cycles",27.67 per 1500 EnSC
same,"Mean CFU count, second biopsy","[1]; all data, RPL patients, oral 100 mg once daily for 3 menstrual cycles, listed as Sitagliptin",27.7 (35.8) per 1500 EnSC and 27.7 per 1500 EnSC
same,Average increase in CFU counts compared to baseline biopsy,[1]; sitagliptin given for 3 menstrual cycles,68%
same,"Baseline CFU count, Mean (SD)",[1]; [6],16.1 (19.6) per 1500 EnSC
same,"Baseline CFU count, Median (IQR, Range)",[1]; [6],"8.5 (4.5-17.8, 1-74) per 1500 EnSC"
same,"Mean CFU count, second biopsy","[1]; subgroup excluding women with outlying CFU counts (>20 colonies per 1500 cells), after 3 cycles",14.42 per 1500 EnSC
same,PRL transcript level normalized to L19,PRL,not significantly different
same,IGFBP1 transcript level normalized to L19,IGFBP1,not significantly different
same,"DIO2 mRNA level, median, second biopsy","DIO2; after 3 cycles oral 100 mg daily, n=16, normalized to L19, P=0.0182 vs baseline",3.86 a.u.
same,"DIO2 mRNA level, median, baseline biopsy","DIO2; sitagliptin group before treatment, n=16, normalized to L19",5.09 a.u.
same,SCARA5 mRNA level normalized to L19,SCARA5,not altered significantly
same,"Adverse events, overall statement",[2]; pre-pregnancy sitagliptin treatment in RPL patients,no adverse events were reported
same,"Chills, events",[2]; sitagliptin group n = 19,1
same,"Diarrhoea, events",[2]; sitagliptin group n = 19,0
same,"Dizziness, events",[2]; sitagliptin group n = 19,2
same,"Dizziness, participants",[2]; sitagliptin group n = 19,1
same,"Dry Nose, events",[2]; sitagliptin group n = 19,0
same,"Dry mouth, events",[2]; sitagliptin group n = 19,1
same,"Headache, events",[2]; sitagliptin group n = 19,10
same,"Headache, participants",[2]; sitagliptin group n = 19,4
same,"Low Mood, events",[2]; sitagliptin group n = 19,1
same,"Mouth ulcers, events",[2]; sitagliptin group n = 19,0
same,"Myalgia, events",[2]; sitagliptin group n = 19,1
same,"Nausea, events",[2]; sitagliptin group n = 19,1
same,"Night sweats, events",[2]; sitagliptin group n = 19,1
same,"Nose bleed, events",[2]; sitagliptin group n = 19,0
same,"Rash, events",[2]; sitagliptin group n = 19,0
same,"Sore Throat, events",[2]; sitagliptin group n = 19,1
same,"Stuffy Nose, events",[2]; sitagliptin group n = 19,0
same,"Thinning of hair, events",[2]; sitagliptin group n = 19,0
same,"Thirst, events",[2]; sitagliptin group n = 19,1
same,"UTI, events",[2]; sitagliptin group n = 19,1
same,Termination of pregnancy at 16 weeks for a fetal abnormality,[3],one
same,Live births,[3]; 12 pregnancies,8
same,Spontaneous pregnancy losses before 12 weeks of gestation,[3]; 12 pregnancies,3
same,Cardiac function,[4],failed to improve cardiac function
same,Engraftment of haematopoietic stem and progenitor cells in bone marrow,[5],improve engraftment of haematopoietic stem and progenitor cells in bone marrow

# Source: patent US12650432B2, “SCARA5 and DIO2 as biomarkers for miscarriage and implantation failure” (The University of Warwick, priority 2019, dated 2026)
